What was measured:
[1] = system: Leptosphaeria nodorum (LEPTNO); assay: Glume Blotch of Wheat, whole plant 24 Hour Protectant (T2); conditions: Parastagonospora nodorum; wheat (cultivar Yuma), sprayed at 100 ppm, inoculated after 24 hours; read-out: T2 LEPTNO in vivo 1 Day Protectant, control of fungal infection
[2] = system: Phytophthora infestans (PHYTIN); assay: whole plant or invertebrate; conditions: in Solanum lycopersicum, 24 h, read-out: T3 PHYTIN in vivo 1 Day Protectant, control of fungal infection
[3] = system: Puccinia recondita (PUCCRT); assay: Brown Rust of Wheat, whole plant 24 Hour Protectant (T5); conditions: wheat (cultivar Yuma), sprayed at 100 ppm, inoculated after 24 hours, read-out: T5 PUCCRT in vivo 1 Day Protectant, control of fungal infection
[4] = system: Septoria tritici (SEPTTR); assay: Leaf Blotch of Wheat, whole plant 24 Hour Protectant (T6); conditions: Zymoseptoria tritici; wheat (cultivar Monon), sprayed at 100 ppm, inoculated after 24 hours; read-out: T6 SEPTTR in vivo 1 Day Protectant, control of fungal infection
[5] = system: Stagonospora nodorum (Leptosphaeria nodorum, LEPTNO); assay: microbe, parasite or virus in culture; format: cell-based; conditions: Parastagonospora nodorum, read-out: T7 LEPTNO in vitro Growth Inhibition
[6] = system: Phytophthora infestans (PHYTIN); assay: microbe, parasite or virus in culture; format: cell-based; conditions: in Secale cereale, read-out: T8 PHYTIN in vitro Growth Inhibition
[7] = system: Magnaporthe grisea (Pyricularia oryzae, PYRIOR); assay: microbe, parasite or virus in culture; format: cell-based; conditions: read-out: T9 PYRIOR in vitro Growth Inhibition
[8] = system: Rhizoctonia solani (RHIZSO); assay: microbe, parasite or virus in culture; format: cell-based; conditions: read-out: T10 RHIZSO in vitro Growth Inhibition
[9] = system: Mycosphaerella graminicola (Septoria tritici, SEPTTR); assay: microbe, parasite or virus in culture; format: cell-based; conditions: Zymoseptoria tritici, read-out: T11 SEPTTR in vitro Growth Inhibition
[10] = system: Ustilago maydis (USTIMA); assay: microbe, parasite or virus in culture; format: cell-based; conditions: Mycosarcoma maydis, read-out: T12 USTIMA in vitro Growth Inhibition
[11] = system: Erysiphe graminis (ERYSGT); assay: Powdery Mildew of Wheat, whole plant 24 Hour Protectant (T1); conditions: Blumeria graminis, in Triticum aestivum, read-out: T1 ERYSGT in vivo 1 Day Protectant, control of fungal infection
Description: Compound formulation was accomplished by dissolving technical materials in acetone, with serial dilutions then made in acetone to obtain desired concentrations. Final treatment volumes were obtained by adding 9 volumes 0.01% Triton X-100.
Powdery Mildew of Wheat (Erysiphe graminis—ERYSGT) (24 Hour Protectant): Wheat (cultivar Monon) was grown in a soilless peat-based potting mixture (“Metromix”) and mineral soil (50/50 mix) until the seedlings were 10-20 cm tall. These plants were then sprayed to run-off with the test compound at a rate of 100 ppm. After 24 hours the test plants were inoculated by dusting with conidia from powdery mildew infected wheat plants. The plants were then transferred to the greenhouse until disease developed on the untreated control plants.

Row | SMILES | pest or weed control at 100 ppm [1] | pest or weed control at 100 ppm [2] | pest or weed control at 100 ppm [3] | pest or weed control at 100 ppm [4] | inhibition at 25 ppm [5] | inhibition at 25 ppm [6] | inhibition at 25 ppm [7] | inhibition at 25 ppm [8] | inhibition at 25 ppm [9] | inhibition at 25 ppm [10] | melting point | pest or weed control at 100 ppm [11]
1 | COc1ccnc(C(=O)N[C@H]2COC(=O)[C@H](Cc3ccccc3)[C@@H](OC(=O)C(C)C)[C@H](C)OC2=O)c1OCOC(=O)c1ccccc1 [Compound 29] | 75 to 100% | < 25% | 75 to 100% | 75 to 100% | > 80% | < 80% | < 80% | < 80% | < 80% | < 80% | 65 to 70 °C | 25 to 74%
2 | CCOCC(=O)OCOc1c(OC)ccnc1C(=O)N[C@H]1COC(=O)[C@H](Cc2ccccc2)[C@@H](OC(=O)C(C)C)[C@H](C)OC1=O [Compound 31] | 75 to 100% | < 25% | 75 to 100% | 75 to 100% | > 80% | < 80% | > 80% | < 80% | < 80% | < 80% | 79 to 81 °C | 25 to 74%
3 | COc1ccnc(C(=O)N[C@H]2COC(=O)[C@H](Cc3ccccc3)[C@@H](OC(=O)C(C)C)[C@H](C)OC2=O)c1OCOC(=O)C1CCCC1 [Compound 33] | 75 to 100% | < 25% | 75 to 100% | 75 to 100% | > 80% | < 80% | > 80% | < 80% | < 80% | < 80% | 128 to 129 °C | 25 to 74%
4 | COC(=O)OCOc1c(OC)ccnc1C(=O)N[C@H]1COC(=O)[C@H](Cc2ccccc2)[C@@H](OC(=O)C(C)C)[C@H](C)OC1=O [Compound 44] | 75 to 100% | < 25% | 75 to 100% | 75 to 100% | > 80% | < 80% | < 80% | < 80% | > 80% | < 80% | 140 to 144 °C | 25 to 74%
5 | COc1ccnc(C(=O)N[C@H]2COC(=O)[C@H](Cc3ccccc3)[C@@H](OCC(C)C)[C@H](C)OC2=O)c1OCOC(C)=O [Compound 49] | 75 to 100% | 25 to 74% | 75 to 100% | 75 to 100% | > 80% | < 80% | > 80% | < 80% | > 80% | < 80% | 130 to 131 °C | 75 to 100%
6 | COc1ccnc(C(=O)N[C@H]2COC(=O)[C@H](Cc3ccccc3)[C@@H](OC3CCCC3)[C@H](C)OC2=O)c1OCOC(C)=O [Compound 50] | 75 to 100% | 25 to 74% | 75 to 100% | 75 to 100% | > 80% | < 80% | > 80% | < 80% | < 80% | < 80% | 130 to 132 °C | 25 to 74%

Reference: US6861390B2, “Derivatives of UK-2A” (priority 2001, dated 2005)
